The values below come from PubChem BioAssay AID651642 (Sanford-Burnham Center for Chemical Genomics, 2012).

The test system of test [1] is HL-1. The experiment in a line: cardiomyocyte survival under oxidative or metabolic stress – cell-based, panel, H9c2 and HL-1, H2O2, 2-deoxyglucose, ATP luminescence, SAR follow-up (AID 651642).
Test [2] deals with H9c2. The test is described as above.
Setting [3] is: H9c2/HL-1 cardiomyocyte 2-deoxyglucose damage, mean of runs, with 2-deoxyglucose, mean IC50 across panel.
Where [4] appears, read: H9c2/HL-1 cardiomyocyte 2-deoxyglucose damage, run 1, with 2-deoxyglucose.
Setting [5] is: H9c2/HL-1 cardiomyocyte 2-deoxyglucose damage, run 2, with 2-deoxyglucose.
Setting [6] is: H9c2/HL-1 cardiomyocyte 2-deoxyglucose damage, run 3, with 2-deoxyglucose.
Setting [7] is: H9c2/HL-1 cardiomyocyte 2-deoxyglucose damage, run 4, with 2-deoxyglucose.
Where [8] appears, read: H9c2/HL-1 cardiomyocyte H2O2 oxidative damage, mean of runs, with H2O2, mean IC50 across panel.
Where [9] appears, read: H9c2/HL-1 cardiomyocyte H2O2 oxidative damage, run 1, with H2O2.
The mark [10] stands for this setting: H9c2/HL-1 cardiomyocyte H2O2 oxidative damage, run 2, with H2O2.
Setting [11] is: H9c2/HL-1 cardiomyocyte H2O2 oxidative damage, run 3, with H2O2.
The mark [12] stands for this setting: H9c2/HL-1 cardiomyocyte H2O2 oxidative damage, run 4, with H2O2.

As a reminder, the IC50 is the concentration at which inhibition is half-maximal. Lower therefore signals higher potency.

As for `COc1ccc2c(c1OC)C(=O)N1c3ccccc3C(=O)N(Cc3ccccc3F)C21` (centres undefined), the IC50 was 7.16 µM in test [1] (setting [3]); 2.26 µM in test [1] (setting [4]); 2.31 µM in test [1] (setting [5]); 8.41 µM in test [1] (setting [6]); 15.7 µM in test [1] (setting [7]); more than 79 µM in test [1] (setting [8]). In addition, the IC50 is more than 79 µM in test [1] (setting [9]); more than 79 µM in test [1] (setting [10]); more than 79 µM in test [1] (setting [11]); more than 79 µM in test [1] (setting [12]); 34.3 µM in test [2] (setting [3]); 36.6 µM in test [2] (setting [4]). In addition, the IC50 is 37.9 µM in test [2] (setting [5]); 31.3 µM in test [2] (setting [6]); 31.6 µM in test [2] (setting [7]); 1.35 µM in test [2] (setting [9]); 2.03 µM in test [2] (setting [10]); more than 79 µM in test [2] (setting [11]). For the same compound, the IC50 in test [2] (setting [12]) is more than 79 µM.

For the compound `COc1cc(-c2cc(C(=O)Nc3cccc(C(C)=O)c3)c3cc(Br)ccc3n2)cc(OC)c1OC`, the IC50 in test [1] (setting [3]), in test [1] (setting [4]), in test [1] (setting [5]), in test [1] (setting [6]), in test [1] (setting [7]) and in test [1] (setting [9]) was more than 79 µM throughout. Besides, the IC50 is 9.89 µM in test [1] (setting [10]); 2.56 µM in test [1] (setting [11]); 2.83 µM in test [1] (setting [12]); more than 79 µM in test [2] (setting [3]); more than 79 µM in test [2] (setting [4]); more than 79 µM in test [2] (setting [5]). The IC50 is more than 79 µM in test [2] (setting [6]); more than 79 µM in test [2] (setting [7]); more than 79 µM in test [2] (setting [9]); 10.4 µM in test [2] (setting [10]); more than 79 µM in test [2] (setting [11]); more than 79 µM in test [2] (setting [12]).

In the case of `COc1cc(-c2cc(C(=O)NCC(=O)Nc3cccc(C(C)=O)c3)c3ccccc3n2)cc(OC)c1OC`, the IC50 amounted to 6.18 µM in test [1] (setting [3]); 2.77 µM in test [1] (setting [4]); 3.2 µM in test [1] (setting [5]); 8.97 µM in test [1] (setting [6]); 9.78 µM in test [1] (setting [7]); 6.32 µM in test [1] (setting [8]). Moreover, the IC50 was found to be 4.49 µM in test [1] (setting [9]); 9.07 µM in test [1] (setting [10]); 4.55 µM in test [1] (setting [11]); 7.16 µM in test [1] (setting [12]); 8.19 µM in test [2] (setting [3]); 9.43 µM in test [2] (setting [4]). The IC50 came to 9.75 µM in test [2] (setting [5]); 6.11 µM in test [2] (setting [6]); 7.46 µM in test [2] (setting [7]); 1.61 µM in test [2] (setting [8]); 1.67 µM in test [2] (setting [9]); 2.65 µM in test [2] (setting [10]). Besides, the IC50 worked out at 0.99 µM in test [2] (setting [11]) and 1.13 µM in test [2] (setting [12]).

For the compound `COC(=O)CNC(=O)c1cc(-c2cc(OC)c(OC)c(OC)c2)nc2ccccc12`, the IC50 in test [1] (setting [3]), in test [1] (setting [4]), in test [1] (setting [5]), in test [1] (setting [6]), in test [1] (setting [7]) and in test [1] (setting [9]) was more than 79 µM each time. Further, the IC50 in test [1] (setting [10]) is 41.2 µM; in test [1] (setting [11]), more than 79 µM; in test [1] (setting [12]), more than 79 µM; in test [2] (setting [3]), more than 79 µM; in test [2] (setting [4]), more than 79 µM; in test [2] (setting [5]), more than 79 µM. In addition, the IC50 in test [2] (setting [6]) is more than 79 µM; in test [2] (setting [7]), more than 79 µM; in test [2] (setting [9]), more than 79 µM; in test [2] (setting [10]) it was 39.1 µM; in test [2] (setting [11]) it was more than 79 µM; in test [2] (setting [12]) it was more than 79 µM.

For the compound `COc1cc(-c2cc(C(=O)Nc3cccc(C(C)=O)c3)c3cc(F)ccc3n2)cc(OC)c1OC`, the IC50 is more than 79 µM in test [1] (setting [3]); more than 79 µM in test [1] (setting [4]); more than 79 µM in test [1] (setting [5]); more than 79 µM in test [1] (setting [6]); more than 79 µM in test [1] (setting [7]); 3.68 µM in test [1] (setting [8]). Besides, the IC50 in test [1] (setting [9]) was 2.49 µM; in test [1] (setting [10]) it was 3.72 µM; in test [1] (setting [11]), 3.31 µM; in test [1] (setting [12]), 5.2 µM; in test [2] (setting [3]), more than 79 µM; in test [2] (setting [4]), more than 79 µM. The IC50 was more than 79 µM in test [2] (setting [5]); more than 79 µM in test [2] (setting [6]); more than 79 µM in test [2] (setting [7]); 6.9 µM in test [2] (setting [8]); 5.38 µM in test [2] (setting [9]); 7.18 µM in test [2] (setting [10]). The values for the IC50 in test [2] (setting [11]) and in test [2] (setting [12]) were 4.58 µM and 10.5 µM, respectively.

Consider `COc1cc(-c2cc(C(=O)Nc3cccc(C(C)=O)c3)c3ccccc3n2)cc(OC)c1OC`, for which the IC50 in test [1] (setting [3]) amounted to 8.62 µM; in test [1] (setting [4]), 5.68 µM; in test [1] (setting [5]) it was 6.27 µM; in test [1] (setting [6]) it was 8.63 µM; in test [1] (setting [7]), 13.9 µM; in test [1] (setting [8]) it was 7.06 µM. Besides, the IC50 in test [1] (setting [9]) is 5.59 µM; in test [1] (setting [10]) it was 5.68 µM; in test [1] (setting [11]), 6.71 µM; in test [1] (setting [12]), 10.3 µM; in test [2] (setting [3]), more than 79 µM; in test [2] (setting [4]) it was more than 79 µM. In addition, the IC50 in test [2] (setting [5]) was more than 79 µM; in test [2] (setting [6]) it was more than 79 µM; in test [2] (setting [7]), more than 79 µM; in test [2] (setting [9]), 3.74 µM; in test [2] (setting [10]), 4.04 µM; in test [2] (setting [11]), more than 79 µM. The IC50 in test [2] (setting [12]) was found to be 3.69 µM.
